The values that follow come from US20260209214A1, “LSD1 MODULATORS” (RECURSION PHARMACEUTICALS, INC., priority 2022, published 2026).

The structures appear in SMILES notation. Where a name gives a salt, the structure may show the parent alone.

This test has as its target Recombinant human LSD1 (Homo sapiens, UniProt O60341). Description: LSD1 inhibition assay (HTRF LSD1 Histone H3K4 mono-demethylation assay, me1->me0). Format: biochemical. Particulars: 20 nM recombinant human LSD1, 95 nM H3K4(me1) biotinylated peptide, 15 min preincubation, 60 min at 25° C., read-out: LSD1 inhibition IC50 (nM range). The method in brief:
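HTRF demethylation (me1->me0) read-out: streptavidin-XL665 and anti-H3K4me0 cryptate added after reaction, ratio measured after 90 min dark. Reaction: 95 nM H3K4me1 biotin-peptide, 20 nM LSD1 (15-min compound pre-incubation), 60 min, 25 °C, buffer pH 8.5 plus FAD and DTT; 4-parameter logistic IC50.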
One may read the IC50 as the point on the concentration scale where inhibition reaches its midpoint. With `Cc1nocc1-c1c(CC2CNCCO2)cccc1-c1ccc(C#N)c(F)c1` (centres unmarked) [Example 35, 3-fluoro-2′-(3-methyl-1,2-oxazol-4-yl)-3′-[(morpholin-2-yl)methyl]-[1,1′-biphenyl]-4-carbonitrile], the IC50 was 25 to 100 nM.
Take `N#Cc1ccc(-c2cccc(CN3C[C@]4(N)CC[C@H]3C4)c2-c2scnc2Cl)cc1F` [Example 188, 3'-{[(1S,4S)-4-amino-2-azabicyclo[2.2.1]heptan-2-yl]methyl}-2'-(4-chloro-1,3-thiazol-5-yl)-3-fluoro-[1,1'-biphenyl]-4-carbonitrile]: the half-maximal inhibitory concentration (IC50) lay in the range of 10 to 25 nM.
The value for `Cc1cc(CN2C[C@H]3C[C@@H]2CN3)c(C)c(-c2ccc(C#N)c(F)c2)c1` [Example 293, 3'-{[(1R,4R)-2,5-diazabicyclo[2.2.1]heptan-2-yl]methyl}-3-fluoro-2',5'-dimethyl-[1,1'-biphenyl]-4-carbonitrile] was 100 to 1000 nM.
Consider `N#Cc1ccc(-c2cc(CC3CNCCO3)ccc2N2CCN(CC(F)F)CC2)cc1F` (centres unmarked) [Example 105, 2′-[4-(2,2-difluoroethyl)piperazin-1-yl]-3-fluoro-5′-[(morpholin-2-yl)methyl]-[1,1′-biphenyl]-4-carbonitrile], for which the IC50 lay within 100 to 1000 nM.
The figure for `N#Cc1ccc(-c2cccc(CN3C4CCC3CNC4)c2C2CC2)cc1F` [Example 265, 2'-cyclopropyl-3'-({3,8-diazabicyclo[3.2.1]octan-8-yl}methyl)-3-fluoro-[1,1'-biphenyl]-4-carbonitrile] is 25 to 100 nM; for `N#Cc1ccc(-c2cccc(CC3CNCCO3)c2-c2ocnc2F)cc1F` (centres unmarked) [Example 29, 3-fluoro-2′-(4-fluoro-1,3-oxazol-5-yl)-3′-[(morpholin-2-yl)methyl]-[1,1′-biphenyl]-4-carbonitrile] it is 10 to 25 nM.
The figure for `Cn1cc(-c2c(CC3CNCCO3)cccc2-c2ccc(C#N)c(F)c2)cn1` (centres unmarked) [Example 153, 3-fluoro-2′-(1-methyl-1H-pyrazol-4-yl)-3′-[(morpholin-2-yl)methyl]-[1,1′-biphenyl]-4-carbonitrile] is 25 to 100 nM; for `N#Cc1ccc(-c2ccc(F)c(CN3C[C@]4(N)CC[C@H]3C4)c2-c2ccns2)cc1F` [Example 185, 3'-{[(1S,4S)-4-amino-2-azabicyclo[2.2.1]heptan-2-yl]methyl}-3,4'-difluoro-2'-(1,2-thiazol-5-yl)-[1,1'-biphenyl]-4-carbonitrile] it is below 10 nM; for `N#Cc1ccc(-c2cc(C[C@H]3CNCCO3)ccc2N2CCC2)cc1F` (single isomer, unassigned) [Example 54] it is 100 to 1000 nM.
The value for `CN1CCC2CN(Cc3cccc(-c4ccc(C#N)c(F)c4)c3C3CC3)CC21` (centres unmarked) [Example 276, 2'-cyclopropyl-3-fluoro-3'-({1-methyl-octahydropyrrolo[2,3-c]pyrrol-5-yl}methyl)-[1,1'-biphenyl]-4-carbonitrile] was 100 to 1000 nM.
Take `CCc1cc(CC2CNCCO2)cc(-c2ccc(C#N)cc2)c1Cl` (centres unmarked) [Example 161, 2′-chloro-3′-ethyl-5′-[(morpholin-2-yl)methyl]-[1,1′-biphenyl]-4-carbonitrile]: the IC50 is above 1000 nM.
With `C[C@@]1(N)CCN(Cc2cccc(-c3ccc(C#N)c(F)c3)c2C2CC2)C1` [Example 349, 3'-{[(3R)-3-amino-3-methylpyrrolidin-1-yl]methyl}-2'-cyclopropyl-3-fluoro-[1,1'-biphenyl]-4-carbonitrile], the 50% inhibitory concentration (IC50) fell in the range of 100 to 1000 nM.
The figure for `Cc1ncsc1-c1c(CC2CNCCO2)cccc1-c1ccc(C#N)c(F)c1` (centres unmarked) [Example 24, 3-fluoro-2′-(4-methyl-1,3-thiazol-5-yl)-3′-[(morpholin-2-yl)methyl]-[1,1′-biphenyl]-4-carbonitrile] is 10 to 25 nM.
Regarding `N#Cc1ccc(-c2cccc(CN3[C@H]4CC[C@@H]3[C@H](N)C4)c2-c2ccns2)cc1` (single isomer, unassigned) [Example 187], the concentration for half-maximal inhibition (IC50) lay within 10 to 25 nM.
The value for `N#Cc1ccc(-c2cccc(CN3[C@@H]4CC[C@H]3[C@@H](N)C4)c2OC(F)F)cc1F` (single isomer, unassigned) [Example 183] was below 10 nM.
The figure for `CCOCC1(O)CCN(c2ccc(CC3CNCCO3)cc2-c2ccc(C#N)c(F)c2)CC1` (centres unmarked) [Example 63, 2′-[4-(ethoxymethyl)-4-hydroxypiperidin-1-yl]-3-fluoro-5′-[(morpholin-2-yl)methyl]-[1,1′-biphenyl]-4-carbonitrile] is 100 to 1000 nM; for `N#Cc1ccc(-c2cccc(CN3C[C@]4(N)CC[C@H]3C4)c2-c2ccns2)cc1F` [Example 171, 4-[3-[[(1S,4S)-4-amino-2-azabicyclo[2.2.1]heptan-2-yl]methyl]-2-isothiazol-5-yl-phenyl]-2-fluoro-benzonitrile hydrochloride] it is 10 to 25 nM; for `CC(C)N(C)c1ccc(CN2CCN(C)CC2)cc1-c1ccc(C#N)c(F)c1` [Example 295, 3-fluoro-2'-[methyl(propan-2-yl)amino]-5'-[(4-methylpiperazin-1-yl)methyl]-[1,1'-biphenyl]-4-carbonitrile] it is above 1000 nM.
The value for `COCc1ccc(-c2ccc(CC3CNCCO3)cc2-c2ccc(C#N)c(F)c2)c(F)c1` (centres unmarked) [Example 68, 3-fluoro-2′-[2-fluoro-4-(methoxymethyl)phenyl]-5′-[(morpholin-2-yl)methyl]-[1,1′-biphenyl]-4-carbonitrile] was 25 to 100 nM.
As for `COc1ccc(-c2ccc(CC3CNCCO3)cc2-c2ccc(C#N)c(F)c2)cc1F` (centres unmarked) [Example 98, 3-fluoro-2′-(3-fluoro-4-methoxyphenyl)-5′-[(morpholin-2-yl)methyl]-[1,1′-biphenyl]-4-carbonitrile], the IC50 was 100 to 1000 nM.
The value for `CN[C@H]1CCN(Cc2cccc(-c3ccc(C#N)c(F)c3)c2C2CC2)C1` [Example 211, 2'-cyclopropyl-3-fluoro-3'-{[(3S)-3-(methylamino)pyrrolidin-1-yl]methyl}-[1,1'-biphenyl]-4-carbonitrile] was 25 to 100 nM; that for `N#Cc1ccc(-c2cccc(CN3C[C@]4(N)CC[C@H]3C4)c2-c2ocnc2F)cc1F` [Example 174, 3'-{[(1S,4S)-4-amino-2-azabicyclo[2.2.1]heptan-2-yl]methyl}-3-fluoro-2'-(4-fluoro-1,3-oxazol-5-yl)-[1,1'-biphenyl]-4-carbonitrile] was 10 to 25 nM.
Consider `N#Cc1ccc(-c2cccc(CN3CCCC34CCCNC4)c2Cl)cc1F` (centres unmarked) [Example 327, 2'-chloro-3'-({1,7-diazaspiro[4.5]decan-1-yl}methyl)-3-fluoro-[1,1'-biphenyl]-4-carbonitrile], for which the 50% inhibitory concentration (IC50) is above 1000 nM.
The value for `N#Cc1ccc(-c2cccc(C[C@@H]3CNCCO3)c2-c2ccns2)cc1` (single isomer, unassigned) [Example 11] was 10 to 25 nM; that for `N#Cc1ccc(-c2cccc(CN3C[C@H]4C[C@@H]3CCN4)c2C2CC2)cc1F` [Example 322, 2'-cyclopropyl-3'-{[(1R,5S)-2,6-diazabicyclo[3.2.1]octan-6-yl]methyl}-3-fluoro-[1,1'-biphenyl]-4-carbonitrile] was 25 to 100 nM; that for `N#Cc1ccc(-c2cc(C[C@@H]3CN4CCC[C@H]4CO3)ccc2N2CCC2)cc1F` [Example 131, 5′-{[(3R,8aS)-hexahydro-1H-pyrrolo[2,1-c][1,4]oxazin-3-yl]methyl}-2′-(azetidin-1-yl)-3-fluoro-[1,1′-biphenyl]-4-carbonitrile] was above 1000 nM.
The figure for `CCN[C@@H]1C[C@@H]2CC[C@H]1N2Cc1cccc(-c2ccc(C#N)c(F)c2)c1C1CC1` (single isomer, unassigned) [Example 201] is 10 to 25 nM.
Turning to `CC1(C)CNCC(Cc2cccc(-c3ccc(C#N)cc3)c2-c2cncs2)O1` (centres unmarked) [Example 103, 3′-[(6,6-dimethylmorpholin-2-yl)methyl]-2′-(1,3-thiazol-5-yl)-[1,1′-biphenyl]-4-carbonitrile], the IC50 lay within 10 to 25 nM.
The value for `N#Cc1ccc(-c2cccc(CC3CNCCO3)c2-c2ccno2)cc1F` (centres unmarked) [Example 16, 3-fluoro-3′-[(morpholin-2-yl)methyl]-2′-(1,2-oxazol-5-yl)-[1,1′-biphenyl]-4-carbonitrile] was 10 to 25 nM; that for `CN1CCN(Cc2ccc(N3CCC3)c(-c3ccc(C#N)c(F)c3)c2)CC1` [Example 296, 2'-(azetidin-1-yl)-3-fluoro-5'-[(4-methylpiperazin-1-yl)methyl]-[1,1'-biphenyl]-4-carbonitrile] was above 1000 nM.
The value for `N#Cc1ccc(-c2cccc(C[C@H]3CNCCO3)c2-c2ccns2)cc1` (single isomer, unassigned) [Example 5, hydrochloride] was 10 to 25 nM; that for `C[C@@H]1CC[C@H](N)CN1Cc1cccc(-c2ccc(C#N)c(F)c2)c1Cl` [Example 330, 3'-{[(2R,5S)-5-amino-2-methylpiperidin-1-yl]methyl}-2'-chloro-3-fluoro-[1,1'-biphenyl]-4-carbonitrile] was above 1000 nM; that for `N#Cc1ccc(-c2cccc(CN3CCNCC(F)(F)C3)c2Cl)cc1F` [Example 338, 2'-chloro-3'-[(6,6-difluoro-1,4-diazepan-1-yl)methyl]-3-fluoro-[1,1'-biphenyl]-4-carbonitrile] was above 1000 nM.
The value for `N#Cc1ccc(-c2cc(CN3C[C@]4(N)CC[C@H]3C4)ccc2C2CC2)cc1F` [Example 308, 5'-{[(1S,4S)-4-amino-2-azabicyclo[2.2.1]heptan-2-yl]methyl}-2'-cyclopropyl-3-fluoro-[1,1'-biphenyl]-4-carbonitrile] was 25 to 100 nM; that for `CC(C)N1CCOC(Cc2ccc(N3CCC3)c(-c3ccc(C#N)c(F)c3)c2)C1` (centres unmarked) [Example 163, 2′-(azetidin-1-yl)-3-fluoro-5′-{[4-(propan-2-yl)morpholin-2-yl]methyl}-[1,1′-biphenyl]-4-carbonitrile] was 100 to 1000 nM.
